Data set [1] has as its target T1, wild type Gαq in HEK Gαq/Gα11-null cells (Homo sapiens, UniProt P50148).
T1 construct: expressed in transfected cells; host or cells: CRISPR/Cas9-edited HEK293 Gαq/Gα11-null cells
T1 sequence (P50148 1-359): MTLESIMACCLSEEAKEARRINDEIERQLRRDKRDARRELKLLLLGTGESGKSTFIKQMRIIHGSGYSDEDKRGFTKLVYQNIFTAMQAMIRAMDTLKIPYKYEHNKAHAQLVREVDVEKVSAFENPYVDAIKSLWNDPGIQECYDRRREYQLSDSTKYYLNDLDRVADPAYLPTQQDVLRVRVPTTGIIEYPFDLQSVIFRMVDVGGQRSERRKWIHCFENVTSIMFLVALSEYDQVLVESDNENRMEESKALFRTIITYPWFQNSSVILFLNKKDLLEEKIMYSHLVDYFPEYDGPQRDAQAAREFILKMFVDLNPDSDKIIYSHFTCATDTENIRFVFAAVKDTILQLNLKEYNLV
Kind of data set: DMR (dynamic mass redistribution) inhibition of carbachol (CCh 100 µM) response in Gαq-transfected HEK293 Gαq/Gα11-null cells. It is filed as cell-based. Conditions: compounds added 1 h before, 37 °C, mean ± s.e.m. of n independent replicates in technical triplicates (FR n=11, FR-Core n=4, FR-5 n=4), read-out: pIC50 (Gαq inhibition, DMR) (converted). The protocol: Label-free dynamic mass redistribution (DMR) assay
Cell culture materials were purchased from Invitrogen (Carlsbad, CA, USA). Generation of genetically engineered HEK293 cells using CRISPR/Cas9 technology to knockout the subunits of Gαq and Gα11 (Gαq/Gα11-null cells) is described elsewhere. Cells were maintained in Dulbecco’s modified Eagle’s medium (DMEM) supplemented with 10% (v/v) fetal calf serum (FCS, PAN biotech, Germany), penicillin (100 units/mL), and streptomycin (0.1 mg/mL), and kept in a humidified atmosphere with 5% CO2 at 37 °C. All cell lines were screened by PCR on a monthly basis for mycoplasma contamination and were tested negative. DMR measurements were performed analogous to prior studies[39],[40] using the Epic DMR reader (Corning, NY, USA) together with the Cybi-SELMA semi-automated electronic pipetting system (Analytik Jena AG, Jena, Germany). 24 h after transfection with the G protein αq subunit, HEK293 cells were counted and seeded on 384-well fibronectin-coated biosensor plates at a density of 17,000 cells per well. On the next day, cells were washed twice with Hanks’ buffered salt solution containing 20 mM HEPES (HBSS + HEPES) and incubated for 1 h at 37 °C in the EPIC reader. 1, 2, 3 or 7 in HBSS + HEPES were added 1 h before the measurement. The sensor plate was scanned to record a baseline optical signature (no change in basal DMR), and after the addition of compounds, DMR alterations were monitored for 3000 s at 37 °C. All data were analyzed using GraphPad Prism 8.0.0 (GraphPad Inc, La Jolla, CA, USA). Quantification of DMR signals was performed by calculation of the maximum responses. […]
Concentration-effect curves in Fig. 4a–c were normalized by setting each experimental maximal effect as 100% response. All data are expressed as mean + or ± standard error of the mean (s.e.m.) of at least three independent experiments performed in technical triplicates. […]
Supplementary Table 6: Quantification of FR, FR-Core and FR-5 inhibitory activities at wild type Gαq in HEK Gαq/Gα11-null cells. […]

The target of data set [2] is T2, Gαq proteins (human platelet membrane preparations) (Homo sapiens, UniProt P50148).
T2 construct: human platelet membrane preparations that natively express Gαq proteins; from tissue; host or cells: human platelet membrane preparation
T2 sequence (P50148 1-359): T1 sequence (P50148 1-359)
Kind of data set: Competition binding vs [³H]PSB-15900 at human platelet membrane preparations. As to conditions: vs 5 nM [³H]PSB-15900; 50 µg protein; 50 mM Tris pH 7.4; 37 °C, 1 h; read-out: pIC50 (competition binding) (converted). On the procedure: Competition binding assay
Competition binding assays of 1 and 2 were conducted versus the radiolabeled FR derivative [³H]PSB-15900 utilizing human platelet membrane preparations that natively express Gαq proteins. The experiments were performed in 50 mM Tris, pH=7.4, in a final assay volume of 200 µl. Each assay tube contained 50 µl [³H]PSB-15900 solution in the buffer (final concentration: 5 nM), 50 µl of human platelet membrane preparation in buffer (50 µg of protein), 95 µl of buffer, and 5 µl of 1 or 2 solution, respectively, in varying concentrations dissolved in DMSO. Non-specific-binding was determined in the presence of 5 µM FR dissolved in DMSO. Incubation was performed at 37 °C for 1 h with gentle shaking and was started by the addition of the membrane preparation. The incubation was terminated by rapid filtration through GF/C glass fiber filters using a Brandel 24-well-harvester. Filters were dried, punched out, transferred to scintillation vials, and incubated for at least 6 h in scintillation cocktail (2.5 ml ProSafe FC+®, Meridian Biotechnologies Ltd, UK) prior to measurement in a liquid scintillation counter at an efficiency of 53%. Data were evaluated using GraphPad Prism 7 (GraphPad Inc., San Diego, CA, USA), and IC50 values were determined by the One site – Fit logIC50-equation.

A further data set has as its system Riptortus pedestris. Kind of data set: Oral feeding toxicity, survival rate of first instar stinkbug nymphs. As to conditions: 40 µM, nine days. It is filed as in vivo. The protocol: Feeding and effect determination of 1 and 2 on insects
A small cotton pad soaked with 500 µl of 1 or 2-containing water was served to first instar nymphs of the stinkbug R. pedestris for oral intake. For feeding, 1 and 2 were each dissolved in 100% MeOH and diluted with water to concentrations of 0.2, 0.04, and 0.02 µg/µl. Distilled water containing 2% MeOH was used as control. Each experiment included 20 stinkbug individuals. Insects were reared in a moisture chamber at 25 °C under a long day regimen (16 h light, 8 h dark), supplied with dried soybean seeds. The 1 or 2-containing water was exchanged every 3 d, and the survival rate was monitored every day at the same time for 9 d.
Please select the one below that is the best fit for your research. If you are not sure, read the appropriate sections before making your selection. […]
Sample size Sample size: 7 groups of each 20 animals were treated with control (1 group) and two different compounds at 3 different concentrations (6 groups). […] Sample size (size of group) was determined based on standard laboratory practice, and the available amount of the compounds for the experiments. […]
We require information from authors about some types of materials, experimental systems and methods used in many studies. […] If you are not sure if a list item applies to your research, read the appropriate section before selecting a response. […]

*1 amine or outer side, *2 acyl side, *3 side chain or, on linkers, in order; H or OH if unused. Where a SMILES comes first, the peptide text is derived from it. Bridges are numbered along the chain shown (N, C = ends). [ ]: non-standard residue; d: D form. The star is where a group is joined. Leu(3R-OH,Nα-propionyl) = CCC(=O)N[C@H](C(=O)*)[C@H](O)C(C)C; X1 = CC(C)[C@@H](O[*:3])[C@H](N[*:1])C(=O)[*:2]; Leu(3R-OH) = CC(C)[C@@H](O)[C@H](N)C(=O)O; X2 = CCCC(=O)N[C@H](C(=O)*)[C@H](O)C(C)C; NMeT = CN[C@H](C(=O)O)[C@@H](C)O; dPhLac = O=C(O)[C@H](O)Cc1ccccc1; NMeA = CN[C@@H](C)C(=O)O; NMeDha = C=C(NC)C(=O)O

Turning to `C=C1C(=O)N[C@@H](C)C(=O)N(C)[C@@H](C)C(=O)N[C@@H]([C@H](OC(=O)[C@@H](NC(=O)CCC)[C@H](O)C(C)C)C(C)C)C(=O)N(C)[C@@H]([C@@H](C)OC)C(=O)O[C@H](C(C)C)[C@H](NC(C)=O)C(=O)O[C@H](Cc2ccccc2)C(=O)N1C` [FR-5] (Ac-[X1][dPhLac][NMeDha]A[NMeA][X1](X2)[NMeT](Me); ester 1-C), the IC50 in data set [1] is 3160 nM.
With `C=C1C(=O)N[C@@H](C)C(=O)N(C)[C@@H](C)C(=O)N[C@@H]([C@H](O)C(C)C)C(=O)N(C)[C@@H]([C@@H](C)OC)C(=O)O[C@H](C(C)C)[C@H](NC(C)=O)C(=O)O[C@H](Cc2ccccc2)C(=O)N1C` [FR-Core] (Ac-[X1][dPhLac][NMeDha]A[NMeA][Leu(3R-OH)][NMeT](Me); ester 1-C), the figures for the IC50 in data set [1] and in data set [2] were 7410 nM and 2750 nM, respectively.
With `C=C1C(=O)N[C@@H](C)C(=O)N(C)[C@@H](C)C(=O)N[C@@H]([C@H](OC(=O)[C@@H](NC(=O)CC)[C@H](O)C(C)C)C(C)C)C(=O)N(C)[C@@H]([C@@H](C)OC)C(=O)O[C@H](C(C)C)[C@H](NC(C)=O)C(=O)O[C@H](Cc2ccccc2)C(=O)N1C` [FR] (Ac-[X1][dPhLac][NMeDha]A[NMeA][X1](Leu(3R-OH,Nα-propionyl))[NMeT](Me); ester 1-C), the IC50 was 457 nM in data set [1] and 13.2 nM in data set [2]. Further, in the data set with Riptortus pedestris, the “lethality in words, lower concentration” value was “lethal effects”.
